Reference: US6613317B1, “Volatile attractants for diabrotica species” (priority 1988, dated 2003)
Several values for one entry are separate records, joined by “and”; a condition that tells them apart may be missing. Equal values may be shown once. Marks after values point to notes of the source that are not given here.

How the values were obtained:
SCR = experiment: Limit of response rating of squash blossom volatiles on sticky traps (Example 5); format: in vivo, Diabrotica undecimpunctata howardi; settings: 24 hour; four replicate traps; 0.01 mg to 200 mg
Experimental: (§1) Over 40 individual volatile chemicals have been isolated from Cucurbita maxima blossoms and circa 25 of these have been unequivocally identified (Andersen, J. F., J. Agric. Food Chem., 35:60-62 (1987): Andersen, J. F. and Metcalf, R. L., J. Chem. Ecol., 12:687-699 (1986)). The major odor components were evaluated as potential attractants for adult Diabrotica species using cylindrical sticky traps baited with dental cotton wicks (Metcalf, R. L., and Lampman, R. L., Paper submitted to J. Econ. Entomol., (1988)) containing from 0.01 mg to 200 mg of volatile compound.

NCR = experiment: as above; format: in vivo, Diabrotica barberi; settings: 24 hour; four replicate traps; 0.01 mg to 200 mg
Experimental: as §1

WCR = experiment: as above; format: in vivo, Diabrotica virgifera virgifera; settings: 24 hour; four replicate traps; 0.01 mg to 200 mg
Experimental: as §1

D. cristata = experiment: Sticky trap attraction in prairie habitat, Trelease Woods (Example 2); format: in vivo, Diabrotica cristata; settings: 100 mg per trap, n = 4
Experimental: (§2) The candidate lures in all experiments were purchased commercially and exceeded 98% purity. The test chemicals were applied by capillary micropipettes to cotton dental wicks which were attached to the tops of 1.0 liter cylindrical paper cartons covered with TangleTrap™ (Tanglefoot Co., Grand Rapids, Mich.). The sticky trap techniques used were as described in Example 1. Cinnamyl alcohol and para-methoxycinnamaldehyde, which are solids, were dissolved in glass-distilled acetone prior to dosing the cotton wicks. […]. Control traps had untreated cotton wicks. Four replicates of treated and untreated traps were randomly positioned 10 meters apart on top of 1 m high posts along the border of a eight foot wide strip cut through the middle of a 4.05 ha relict prairie at Trelease Woods (ca. two miles northeast of Urbana, Ill.). The field consisted primarily of Andropogon gerardii Vitman (big bluestem) and a variety of composites. The tests were conducted in mid-August of two years and were timed to coincide with the presence of D. cristata and D. barberi adults in the flower heads of Canada thistle (Carduus arvensis Robson). In the second year, several new attractants of D. v. virgifera and D. barberi were tested in Trelease Woods and along the edge of a 0.8 ha field of hybrid corn located at the Pomology South Farms, Urbana, Ill. Attraction of Diabrotica species to the various lures was measured by the mean number of beetles caught after 24-h. On one date in late August of the first year, D. cristata and D. barberi were removed from the traps and sexed in the laboratory. The significance of treatments in all tests was determined by an analysis of variance and the individual means were separated by Duncan's multiple range test (Statistical Package for Social Science, Nie, et al., SPSS: statistical package for the social sciences, 2nd ed. McGraw-Hill, New York (1975). Data were logarithmically transformed for statistical analysis and the means and standard deviations are presented for the untransformed data.

D. barberi = experiment: as above; format: in vivo, Diabrotica barberi; settings: 100 mg per trap, n = 4
Experimental: as §2

D. v. virgifera = experiment: as above; format: in vivo, Diabrotica virgifera virgifera; settings: 100 mg per trap, n = 4
Experimental: as §2

D. u. howardi = experiment: as above; format: in vivo, Diabrotica undecimpunctata howardi; settings: 100 mg per trap, n = 4
Experimental: as §2

[1] = test system: southern corn rootworm (SCR) adults; experiment: Sticky trap attraction in sweet corn plots (Example 1); format: in vivo, Diabrotica undecimpunctata howardi; settings: August 4, second year, each compound 20 mg per trap
Experimental: (§3) The attraction of Diabrotica species to single-component and multicomponent lures was evaluated in corn fields. The field experiments on attraction of SCR and WCR adults were conducted in 0.405-ha (1-acre) plots of “Illini Xtra Sweet” corn grown on the University of Illinois South Farms at Urbana, Ill., over a two year period. Most of the tests were conducted in August to correspond with the peak silk-feeding and oviposition periods of corn rootworm adults in central Illinois. In both years, the sweet corn plot was adjacent to a 0.405-ha trap crop of C. maxima cultivar “Blue Hubbard”, to provide high densitites of SCR and WCR adults in the corn plots (Howe, et al., Environ. Entomol., 5:745-751 (1976), Lampman, et al., J. Chem. Ecol., 13:959-975 (1987).
(§4) Attraction of Diabrotica species to volatile compounds was measured by the average number of beetles cought during a 24-h period on 1.0-liter cylindrical paper cartons (15.2 cm high, 27.9 cm circumference) which were evenly coated with clear insect adhesive, TangleTrap™ (Tanglefood Co., Grand Rapids, Mich.) The candidate attractants were applied by capillary micropiettes to cotton dental wicks (13 mm long by 6 mm diameter) that were previously impregnated with mineral oil to prolong volatilization. The chemicals were purchased from Aldrich Chemical Co., (Milwaukee, Wis.) and assayed by gas chromatography as >97% pure. Indole, a solid at ambient temperatures (m.p. 52-54° C.), was dissolved in glass-distilled acetone before dosing the cotton wicks. For dosage-acticity tests, the various components were mixed in equal quantities by weight and diluted to the appropriate dosage with acetone. Treated and untreated (control) wicks were attached to the top of the paper cartons with TangleTrap™ and the inverted traps were placed on 1-m-high posts between the sweet corn rows. Four replicates of each treatment and a control were conducted in a randomized complete block desgin. The sticky traps within a block (ca. 50-m row of corn) were 5-10 m apart (depending on the number of treatments in a particular test) and the blocks were 3 m apart. The traps were baited and placed in the field between 1000 and 1300 hours and beetle counts were taken after 24 h. The significance of treatments was determined by analysis of variance and the individual means were separated by Duncan's multiple range test (Statistical Package for Social Sciences (SPSS) (Nie, et al., SPSS: statistical package for the social sciences, 2nd ed. McGraw-Hill, N.Y. (1975)). Student's t test was used for comparisons of two means (Sokal, et al., Biometry, Freeman, San Francisco (1969). Significance levels were set at P=0.05 at all statistical analyses.
(§5) The initial field test in August of the first year evaluated the response of SCR and WCR adults of a mixture of veratrole (V), indole (I), phenylacetaldehyde (P), trans-anethole (A), and eugenol (E) (=VIPAE mixture), as well as to the individual components. Each component in the VIPAE mixture was present at a dosage of 20 mg per trap and was compared with the individual components at 100 mg per trap. The response of SCR and WCR adults to a range of VIPAE doses, 1-300 mg, was conducted on the following day. Fifty SCR adults were removed from each 100-mg VIPAE trap, and returned to the laboratory for sex determination. Additional analyses in August evaluated the reduction in trap catches produced by the sequential removal of the individual components from the VIPAE lure. After the primary components of the initial lure were determined, a modified multicomponent lure consisting of veratrole, indole, and phenylacetaldehyde (=VIP mixture) was compared with its individual components to determine whether the attraction of SCR adults was the result of interactive or additive factors. The attraction and synergistic response of SCR adults of the VIP mixture was verified by tests conducted in August of the following year. […]

[2] = test system: western corn rootworm (WCR) adults; experiment: as above; format: in vivo, Diabrotica virgifera virgifera; settings: August 4, second year, each compound 20 mg per trap
Experimental: as §3, §4, §5

CCC/C=C/CO [trans-2-hexenol]
Attractant Rating SCR (by limit of response) (SCR): +1 (30-100)
Attractant Rating NCR (by limit of response) (NCR): 0 (200)
Attractant Rating WCR (by limit of response) (WCR): +1 (30-100)

O=Cc1ccccc1 [benzaldehyde]
Attractant Rating SCR (by limit of response) (SCR): 0 (200)
Attractant Rating NCR (by limit of response) (NCR): 0 (200)
Attractant Rating WCR (by limit of response) (WCR): 0 (200)

CC/C=C\CCO [cis-3-hexenol]
Attractant Rating SCR (by limit of response) (SCR): 0 (200)
Attractant Rating NCR (by limit of response) (NCR): 0 (200)
Attractant Rating WCR (by limit of response) (WCR): +1 (30-100)

COc1ccc(C=O)cc1 [p-methoxybenzaldehyde]
Attractant Rating SCR (by limit of response) (SCR): 0 (200)
Attractant Rating NCR (by limit of response) (NCR): 0 (200)
Attractant Rating WCR (by limit of response) (WCR): 0 (200)

CCCCCC=O [1-hexanal]
Attractant Rating SCR (by limit of response) (SCR): 0 (200)
Attractant Rating NCR (by limit of response) (NCR): 0 (200)
Attractant Rating WCR (by limit of response) (WCR): 0 (200)

COc1ccc(OC)c(OC)c1 [1,2,4-trimethoxybenzene]
Attractant Rating SCR (by limit of response) (SCR): +1 (30-100)
Attractant Rating NCR (by limit of response) (NCR): 0 (200)
Attractant Rating WCR (by limit of response) (WCR): +1 (30-100)

OCc1ccccc1 [benzyl alcohol]
Attractant Rating SCR (by limit of response) (SCR): 0 (200)
Attractant Rating NCR (by limit of response) (NCR): 0 (200)
Attractant Rating WCR (by limit of response) (WCR): 0 (200)

CCCCCCO [1-hexanol]
Attractant Rating SCR (by limit of response) (SCR): 0 (200)
Attractant Rating NCR (by limit of response) (NCR): 0 (200)
Attractant Rating WCR (by limit of response) (WCR): 0 (200)

COc1ccc(OC)cc1 [1,4-dimethoxybenzene]
Attractant Rating SCR (by limit of response) (SCR): 0 (200)
Attractant Rating NCR (by limit of response) (NCR): 0 (200)
Attractant Rating WCR (by limit of response) (WCR): 0 (200)

C=CCc1ccc(OC)c(OC)c1 [Methyl eugenol]
Mean number of D. cristata per day (±standard deviation) (D. cristata; August 14, 1987): 4.5 ± 1.3^ab per day
Mean number of D. cristata per sticky trap per day (±standard deviation) (D. cristata; August 18, first year): 1.8 ± 1.5^a per sticky trap per day
Mean number of D. cristata per sticky trap per day (±standard deviation) (D. cristata; August 20, first year): 1.5 ± 1.7^a per sticky trap per day
Mean number of D. barberi per day (±standard deviation) (D. barberi; August 14, 1987): 1.0 ± 1.4^a per day
Mean number of D. barberi per sticky trap per day (±standard deviation) (D. barberi; August 18, first year): 1.8 ± 1.7^a per sticky trap per day
Mean number of D. barberi per sticky trap per day (±standard deviation) (D. barberi; August 20, first year): 2.0 ± 1.4^ab per sticky trap per day
Mean number of D. v. virgifera per day (±standard deviation) (D. v. virgifera; August 14, 1987): 0.0^a per day
Mean number of D. v. virgifera per sticky trap per day (±standard deviation) (D. v. virgifera; August 18, first year): 0.0^a per sticky trap per day
Mean number of D. v. virgifera per sticky trap per day (±standard deviation) (D. v. virgifera; August 20, first year): 0 per sticky trap per day
Mean number of D. u. howardi per day (±standard deviation) (D. u. howardi; August 14, 1987): 0.3 ± 0.5^a per day
Mean number of D. u. howardi per sticky trap per day (±standard deviation) (D. u. howardi; August 18, first year): 0.0^a per sticky trap per day
Mean number of D. u. howardi per sticky trap per day (±standard deviation) (D. u. howardi; August 20, first year): 0.3 ± 0.5^a per sticky trap per day

COc1ccccc1O [Guaiacol, 2-methoxyphenol]
relative percent activity (SCR) as compared with the highest mean value for the test date [1]: 2%
Mean number of SCR per trap (±standard deviation) ([1]; n = 4): 0.8 ± 0.6 per trap
Mean number of D. cristata per sticky trap per day (±standard deviation) (D. cristata; August 20, first year): 6.0 ± 2.6^b per sticky trap per day
Mean number of D. barberi per sticky trap per day (±standard deviation) (D. barberi; August 20, first year): 4.3 ± 2.1^b per sticky trap per day
Mean number of D. v. virgifera per sticky trap per day (±standard deviation) (D. v. virgifera; August 20, first year): 0 per sticky trap per day
relative percent activity (WCR) as compared with the highest mean value for the test date [2]: 39%
Mean number of WCR per trap (±standard deviation) ([2]; n = 4): 20.0 ± 8.9 per trap
Mean number of D. u. howardi per sticky trap per day (±standard deviation) (D. u. howardi; August 20, first year): 0.8 ± 1.0^a per sticky trap per day

C=CC(C)(O)CCC=C(C)CCC=C(C)C (stereo not shown) [nerolidol]
Attractant Rating SCR (by limit of response) (SCR): 0 (200)
Attractant Rating NCR (by limit of response) (NCR): 0 (200)
Attractant Rating WCR (by limit of response) (WCR): 0 (200)

C=CCc1ccc2c(c1)OCO2 [Safrole]
Mean number of D. cristata per sticky trap per day (±standard deviation) (D. cristata; August 20, first year): 1.3 ± 1.9^a per sticky trap per day
Mean number of D. barberi per sticky trap per day (±standard deviation) (D. barberi; August 20, first year): 0.25 ± 0.25^a per sticky trap per day
Mean number of D. v. virgifera per sticky trap per day (±standard deviation) (D. v. virgifera; August 20, first year): 0 per sticky trap per day
Mean number of D. u. howardi per sticky trap per day (±standard deviation) (D. u. howardi; August 20, first year): 0.0^a per sticky trap per day

CC=Cc1ccc(O)c(OC)c1 [Isoeugenol]
Mean number of D. cristata per sticky trap per day (±standard deviation) (D. cristata; August 18, first year): 10.5 ± 12.6^b per sticky trap per day
Mean number of D. cristata per sticky trap per day (±standard deviation) (D. cristata; August 27, first year): 2.5 ± 1.7^b per sticky trap per day
Mean number of D. barberi per sticky trap per day (±standard deviation) (D. barberi; August 18, first year): 31.8 ± 26.7^b per sticky trap per day
Mean number of D. barberi per sticky trap per day (±standard deviation) (D. barberi; August 27, first year): 8.5 ± 3.4^b per sticky trap per day
Mean number of D. v. virgifera per sticky trap per day (±standard deviation) (D. v. virgifera; August 18, first year): 0.0^a per sticky trap per day
Mean number of D. v. virgifera per sticky trap per day (±standard deviation) (D. v. virgifera; August 20, first year): 0 per sticky trap per day
Mean number of D. v. virgifera per sticky trap per day (±standard deviation) (D. v. virgifera; August 27, first year): 0 per sticky trap per day
Mean number of D. u. howardi per sticky trap per day (±standard deviation) (D. u. howardi; August 18, first year): 0.0^a per sticky trap per day
Mean number of D. u. howardi per sticky trap per day (±standard deviation) (D. u. howardi; August 20, first year): 0.5 ± 1.0^a per sticky trap per day and 1.0 ± 0.8^a per sticky trap per day
Mean number of D. u. howardi per sticky trap per day (±standard deviation) (D. u. howardi; August 27, first year): 0.5 ± 1.0^a per sticky trap per day

CCC/C=C/C=O [trans-2-hexenal]
Attractant Rating SCR (by limit of response) (SCR): 0 (200)
Attractant Rating NCR (by limit of response) (NCR): 0 (200)
Attractant Rating WCR (by limit of response) (WCR): 0 (200)
